According to patent EP0517225A1, “Aminopyrrolidine platinum compounds, a process for preparing them and pharmaceutical compositions containing them” (priority 1991, dated 1992):

What was measured:
[1] = system: E.coli bacterial strain, AB2463 mutant strain (RecA); assay: Mutagenicity test: mortality of RecA-deficient E. coli strain; assay type: cell-based; conditions: RecA strain AB2463, treated for 2 hours at 37 °C
Method: A summary of results in mutagenicity and acute toxicity tests is given hereinbelow. a) Mutagenicity tests: E.coli bacterial strain, AB2463 mutant strain (RecA) was used. […] RecA strain, AB2463 mutant strain, which is defective in the recombination and induction of SOS system, was treated for 2 hours at 37^ºC with compounds of the present invention. […]

male BDF₁ mice = assay: Acute toxicity test, LD50 i.p. (Litchfield-Wilcoxon method); assay type: in vivo; conditions: 6-7 week-old male BDF₁ mice, 18-22 g

Row | Structure (SMILES) | LD₁₀ [1] [µM] | LD₅₀ [1] [µM] | LD₉₀ [1] [µM] | LD₅₀ (male BDF₁ mice) [mg/kg]
1 | N.N.[Cl][Pt][Cl] [Cisplatin, reference compound] | 5.72 | 17.0 | 56.0 | –
2 | CC1C(N)CCN1C.[Cl][Pt][Cl] (stereo not drawn) [Example 1, Cis-dichloro(3-amino-1,2-dimethylpyrrolidine)platinum^(II)] | >1.2 | 5.98 | 13.15 | 95.02
3 | CCC1C(N)CCN1CC.[Cl][Pt][Cl] (stereo not drawn) [Example 4, Cis-dichloro(3-amino-1,2-diethylpyrrolidine)platinum^(II)] | 18.97 | 35.57 | 72.33 | 113.81
4 | CCN1CCC(N)C1C.[Cl][Pt][Cl] (stereo not drawn) [Example 2, Cis-dichloro(3-amino-1-ethyl-2-methylpyrrolidine)platinum^(II)] | 15.86 | 57.08 | 301.27 | 60.95
5 | N.N.O=C([O-])C1(C(=O)[O-])CCC1.[Pt+2] [Carboplatin, reference compound] | 71.53 | 606.0 | 1599 | 117.5
6 | CCC1C(N)CCN1C.[Cl][Pt][Cl] (stereo not drawn) [Example 3, Cis-dichloro(3-amino-2-ethyl-1-methylpyrrolidine)platinum^(II)] | 10.74 | 17.89 | 35.78 | 82.72
